Reference: US20260297070A1, “CYCLIC [COMPOUND LEFT OUT] WRN INHIBITORS” (Nimbus Wadjet, Inc., priority 2023, published 2026)

The molecules below were run against T1, human Werner helicase (WRN-BV08, Uniprot Q14191, amino acids 517-1235 with L1074F point mutation) (Homo sapiens, UniProt Q14191, L1074F) (assay: WRN (BV08) ADP-Glo Assay). Settings: 0.15 nM WRN, 5 μM ATP, 0.1 nM DNA duplex, 15 min preincubation, 60 min at 25° C., pH 7.5, 1% DMSO; read-out: ADP-Glo_hWRN_IC50.
T1 construct: Uniprot Q14191, amino acids 517-1235 with L1074F point mutation; TEV-cleavable 8×His (C, cleaved yes); made in house; host or cells: Sf9 insect cells (baculovirus)
Assay type: biochemical
Summary of the method: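 Percent inhibition was normalised to DMSO (max) and 20 μM NSC-617145 (min) controls from ADP-Glo luminescence, and IC50 values came from a four-parameter fit. The reaction ran 60 min at 25 °C with 0.15 nM WRN, 5 μM ATP and 0.1 nM duplex DNA.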

T1 sequence (Q14191 with tags, fused parts or gaps L1074F limits assumed): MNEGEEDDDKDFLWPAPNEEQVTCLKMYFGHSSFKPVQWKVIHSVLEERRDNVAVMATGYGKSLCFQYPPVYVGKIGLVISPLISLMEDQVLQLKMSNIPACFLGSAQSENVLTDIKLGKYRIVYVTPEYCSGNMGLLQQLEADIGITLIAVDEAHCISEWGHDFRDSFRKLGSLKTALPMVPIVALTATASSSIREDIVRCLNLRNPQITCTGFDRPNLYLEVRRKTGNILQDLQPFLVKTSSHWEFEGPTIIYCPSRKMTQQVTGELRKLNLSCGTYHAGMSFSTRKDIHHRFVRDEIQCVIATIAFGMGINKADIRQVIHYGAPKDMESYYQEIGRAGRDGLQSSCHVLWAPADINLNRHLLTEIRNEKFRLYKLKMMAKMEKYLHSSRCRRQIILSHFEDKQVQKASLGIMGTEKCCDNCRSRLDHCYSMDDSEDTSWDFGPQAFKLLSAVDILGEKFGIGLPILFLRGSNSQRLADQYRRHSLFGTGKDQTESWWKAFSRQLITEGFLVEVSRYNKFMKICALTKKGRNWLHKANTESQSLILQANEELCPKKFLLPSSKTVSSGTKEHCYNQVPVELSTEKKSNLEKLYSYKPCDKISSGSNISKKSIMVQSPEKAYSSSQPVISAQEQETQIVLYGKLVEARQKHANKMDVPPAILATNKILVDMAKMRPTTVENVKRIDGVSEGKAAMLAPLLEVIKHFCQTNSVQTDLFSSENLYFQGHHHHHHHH

First: COc1cc(CN(C(=O)C2CCc3[nH]c4cc(Cl)ccc4c3C2)[C@@H]2C=CS(=O)(=O)C2)ccn1 (stereo partly drawn) [I-786, 7-chloro-N-[(3R)-1,1-dioxo-2,3-dihydro-1lambda6-thiophen-3-yl]-N-[(2-methoxypyridin-4-yl)methyl]-2,3,4,9-tetrahydro-1H-carbazole-3-carboxamide]
Second: COc1cc(CN(C(=O)C(OCC2COC2)c2ccc(-c3ccc(F)c(F)c3)cc2F)[C@@H]2C=CS(=O)(=O)C2)ccn1 (stereo partly drawn) [I-807, N-[(3R)-1,1-dioxo-2,3-dihydro-1lambda6-thiophen-3-yl]-N-[(2-methoxypyridin-4-yl)methyl]-2-[(oxetan-3-yl)methoxy]-2-{3,3′,4′-trifluoro-[1,1′-biphenyl]-4-yl}acetamide]
The IC50 of the first is lower: 500 to 5000 nM for the first, 5000 to 10000 nM for the second. The first is the more potent here.

`O=C(Cn1cc(-c2ccc(F)c(F)c2)cn1)N(Cc1ccnc(N2CCNCC2)c1)C1C=CS(=O)(=O)C1` (stereo not drawn) [I-787, 2-[4-(3,4-difluorophenyl)-1H-pyrazol-1-yl]-N-(1,1-dioxo-2,3-dihydro-1lambda6-thiophen-3-yl)-N-{[2-(piperazin-1-yl)pyridin-4-yl]methyl}acetamide] and `CC(C)(N)c1ccc(CN(C(=O)Cn2cc(-c3ccc(F)c(F)c3)cn2)C2C=CS(=O)(=O)C2)cc1` (stereo not drawn) [I-795, N-{[4-(2-aminopropan-2-yl)phenyl]methyl}-2-[4-(3,4-difluorophenyl)-1H-pyrazol-1-yl]-N-(1,1-dioxo-2,3-dihydro-1lambda6-thiophen-3-yl)acetamide] fall in the same range of IC50: 500 to 5000 nM for the first, 500 to 5000 nM for the second.

`CN(CCc1ccncc1)C(=O)c1ccc(CN(C(=O)Cc2ccc(-c3ccc(F)c(F)c3)cc2F)C2C=CS(=O)(=O)C2)cc1` (stereo not drawn) [I-791, 4-{[N-(1,1-dioxo-2,3-dihydro-1lambda6-thiophen-3-yl)-2-{3,3′,4′-trifluoro-[1,1′-biphenyl]-4-yl}acetamido]methyl}-N-methyl-N-[2-(pyridin-4-yl)ethyl]benzamide] and `O=C(c1ccc(CN(C(=O)Cc2ccc(-c3ccc(F)c(F)c3)cc2F)C2C=CS(=O)(=O)C2)cc1)N1CCCCC1` (stereo not drawn) [I-796, N-(1,1-dioxo-2,3-dihydro-1lambda6-thiophen-3-yl)-N-{[4-(piperidine-1-carbonyl)phenyl]methyl}-2-{3,3′,4′-trifluoro-[1,1′-biphenyl]-4-yl}acetamide] fall in the same range of IC50: 500 to 5000 nM for the first, 500 to 5000 nM for the second.

`COc1cc(CN(C(=O)C(O/C=C/S(C)(=O)=O)c2ccc(-c3ccc(F)c(F)c3)cc2F)[C@@H]2C=CS(=O)(=O)C2)ccn1` (stereo partly drawn) [I-793, N-[(3R)-1,1-dioxo-2,3-dihydro-1lambda6-thiophen-3-yl]-2-{[(1E)-2-methanesulfonylethenyl]oxy}-N-[(2-methoxypyridin-4-yl)methyl]-2-{3,3′,4′-trifluoro-[1,1′-biphenyl]-4-yl}acetamide] and `COc1cc(CN(C(=O)C(OCC2CN(S(C)(=O)=O)C2)c2ccc(-c3ccc(F)c(F)c3)cc2F)[C@@H]2C=CS(=O)(=O)C2)ccn1` (stereo partly drawn) [I-810, N-[(3R)-1,1-dioxo-2,3-dihydro-1lambda6-thiophen-3-yl]-2-[(1-methanesulfonylazetidin-3-yl)methoxy]-N-[(2-methoxypyridin-4-yl)methyl]-2-{3,3′,4′-trifluoro-[1,1′-biphenyl]-4-yl}acetamide] fall in the same range of IC50: 500 to 5000 nM for the first, 500 to 5000 nM for the second.

`CC(C)(O)c1csc(CN(C(=O)Cn2cc(-c3cc(F)c(F)c(F)c3)cn2)C2C=CS(=O)(=O)C2)n1` (stereo not drawn) [I-797, N-(1,1-dioxo-2,3-dihydro-1lambda6-thiophen-3-yl)-N-{[4-(2-hydroxypropan-2-yl)-1,3-thiazol-2-yl]methyl}-2-[4-(3,4,5-trifluorophenyl)-1H-pyrazol-1-yl]acetamide] and `CC(O)(c1cc(CN(C(=O)Cn2cc(-c3cc(F)c(F)c(F)c3)cn2)C2C=CS(=O)(=O)C2)ccn1)C(F)F` (stereo not drawn) [I-827, N-{[2-(1,1-difluoro-2-hydroxypropan-2-yl)pyridin-4-yl]methyl}-N-(1,1-dioxo-2,3-dihydro-1lambda6-thiophen-3-yl)-2-[4-(3,4,5-trifluorophenyl)-1H-pyrazol-1-yl]acetamide] cannot be ordered by IC50: less than 500 nM for the first, less than 500 nM for the second.

`COc1cc(CN(C(=O)C(OCC2CCN(S(C)(=O)=O)C2)c2ccc(-c3ccc(F)c(F)c3)cc2F)[C@@H]2C=CS(=O)(=O)C2)ccn1` (stereo partly drawn) [I-808, N-[(3R)-1,1-dioxo-2,3-dihydro-1lambda6-thiophen-3-yl]-2-[(1-methanesulfonylpyrrolidin-3-yl)methoxy]-N-[(2-methoxypyridin-4-yl)methyl]-2-{3,3′,4′-trifluoro-[1,1′-biphenyl]-4-yl}acetamide] and `COc1cc(CN(C(=O)C(OCC2CCCN(S(C)(=O)=O)C2)c2ccc(-c3ccc(F)c(F)c3)cc2F)[C@@H]2C=CS(=O)(=O)C2)ccn1` (stereo partly drawn) [I-809, N-[(3R)-1,1-dioxo-2,3-dihydro-1lambda6-thiophen-3-yl]-2-[(1-methanesulfonylpiperidin-3-yl)methoxy]-N-[(2-methoxypyridin-4-yl)methyl]-2-{3,3′,4′-trifluoro-[1,1′-biphenyl]-4-yl}acetamide] fall in the same range of IC50: 500 to 5000 nM for the first, 500 to 5000 nM for the second.

First: COc1cc(CN(C(=O)C(OCC2CCOCC2)c2ccc(-c3ccc(F)c(F)c3)cc2F)[C@@H]2C=CS(=O)(=O)C2)ccn1 (stereo partly drawn) [I-811, N-[(3R)-1,1-dioxo-2,3-dihydro-1lambda6-thiophen-3-yl]-N-[(2-methoxypyridin-4-yl)methyl]-2-[(oxan-4-yl)methoxy]-2-{3,3′,4′-trifluoro-[1,1′-biphenyl]-4-yl}acetamide]
Second: COc1cc(CN(C(=O)C(C(=O)N(C)CC2CC(F)(F)C2)c2ccc(-c3ccc(F)c(F)c3)cc2F)[C@@H]2C=CS(=O)(=O)C2)ccn1 (stereo partly drawn) [I-822, N-[(3,3-difluorocyclobutyl)methyl]-N′-[(3R)-1,1-dioxo-2,3-dihydro-1lambda6-thiophen-3-yl]-N′-[(2-methoxypyridin-4-yl)methyl]-N-methyl-2-{3,3′,4′-trifluoro-[1,1′-biphenyl]-4-yl}propanediamide]
The IC50 of the first is higher: 500 to 5000 nM for the first, less than 500 nM for the second.

Compared with `Cc1nn(-c2ccc(F)cc2F)c(C)c1CC(=O)N(Cc1ccncc1)C1C=CS(=O)(=O)C1` (stereo not drawn) [I-816, 2-[1-(2,4-difluorophenyl)-3,5-dimethyl-1H-pyrazol-4-yl]-N-(1,1-dioxo-2,3-dihydro-1lambda6-thiophen-3-yl)-N-[(pyridin-4-yl)methyl]acetamide], `CC(C)(O)c1cc(CN(C(=O)Cc2cc(-c3ccc(F)c(F)c3)sn2)[C@@H]2C=CS(=O)(=O)C2)ccn1` [I-825, 2-[5-(3,4-difluorophenyl)-1,2-thiazol-3-yl]-N-[(3R)-1,1-dioxo-2,3-dihydro-1lambda6-thiophen-3-yl]-N-{[2-(2-hydroxypropan-2-yl)pyridin-4-yl]methyl}acetamide] is lower in IC50: greater than 50000 nM for the first, less than 500 nM for the second. The second is the more potent here.

First: O=C(Cc1ccc(S(F)(F)(F)(F)F)cc1)N(Cc1ccc(=O)[nH]n1)C1C=CS(=O)(=O)C1 (stereo not drawn) [I-817, N-(1,1-dioxo-2,3-dihydro-1lambda6-thiophen-3-yl)-N-[(6-oxo-1,6-dihydropyridazin-3-yl)methyl]-2-[4-(pentafluoro-lambda6-sulfanyl)phenyl]acetamide]
Second: O=C1NC(c2ccccc2)CCN1CC(=O)N(Cc1ccncc1)C1C=CS(=O)(=O)C1 (stereo not drawn) [I-819, N-(1,1-dioxo-2,3-dihydro-1lambda6-thiophen-3-yl)-2-(2-oxo-4-phenyl-1,3-diazinan-1-yl)-N-[(pyridin-4-yl)methyl]acetamide]
The IC50 of the first is lower: 500 to 5000 nM for the first, 10000 to 50000 nM for the second.

`COc1cc(C(C)N(C(=O)Cn2cc(-c3cc(F)c(F)c(F)c3)cn2)C2C=CS(=O)(=O)C2)ccn1` (stereo not drawn) [I-820, N-(1,1-dioxo-2,3-dihydro-1lambda6-thiophen-3-yl)-N-[1-(2-methoxypyridin-4-yl)ethyl]-2-[4-(3,4,5-trifluorophenyl)-1H-pyrazol-1-yl]acetamide] and `COc1cc([C@H](C)N(C(=O)Cn2cc(-c3cc(F)c(F)c(F)c3)cn2)[C@@H]2C=CS(=O)(=O)C2)ccn1` [I-829, N-[(3R)-1,1-dioxo-2,3-dihydro-1lambda6-thiophen-3-yl]-N-[(1S)-1-(2-methoxypyridin-4-yl)ethyl]-2-[4-(3,4,5-trifluorophenyl)-1H-pyrazol-1-yl]acetamide] cannot be ordered by IC50: less than 500 nM for the first, less than 500 nM for the second.

First: O=C(Cn1cc(-c2cc(F)c(F)c(F)c2)cn1)OCC1(c2csc(CNC3C=CS(=O)(=O)C3)n2)CC1 (stereo not drawn) [I-823, [1-(2-{[(1,1-dioxo-2,3-dihydro-1lambda6-thiophen-3-yl)amino]methyl}-1,3-thiazol-4-yl)cyclopropyl]methyl 2-[4-(3,4,5-trifluorophenyl)-1H-pyrazol-1-yl]acetate]
Second: O=C(Cn1cc(-c2cc(F)c(F)c(F)c2)cn1)N(Cc1cc(C2CC2)ns1)C1C=CS(=O)(=O)C1 (stereo not drawn) [I-824, N-[(3-cyclopropyl-1,2-thiazol-5-yl)methyl]-N-(1,1-dioxo-2,3-dihydro-1lambda6-thiophen-3-yl)-2-[4-(3,4,5-trifluorophenyl)-1H-pyrazol-1-yl]acetamide]
The IC50 of the first is higher: greater than 50000 nM for the first, less than 500 nM for the second. The second is the more potent here.

`CC(O)(c1cc(CN(C(=O)Cn2cc(-c3cc(F)c(F)c(F)c3)cn2)C2C=CS(=O)(=O)C2)ccn1)C1CC1` (stereo not drawn) [I-826, N-{[2-(1-cyclopropyl-1-hydroxyethyl)pyridin-4-yl]methyl}-N-(1,1-dioxo-2,3-dihydro-1lambda6-thiophen-3-yl)-2-[4-(3,4,5-trifluorophenyl)-1H-pyrazol-1-yl]acetamide] and `CC(C)(O)c1cc(CN(C(=O)Cn2cc(-c3cc(F)c(F)c(F)c3)c(F)n2)[C@@H]2C=CS(=O)(=O)C2)ccn1` [I-832, N-[(3R)-1,1-dioxo-2,3-dihydro-1lambda6-thiophen-3-yl]-2-[3-fluoro-4-(3,4,5-trifluorophenyl)-1H-pyrazol-1-yl]-N-{[2-(2-hydroxypropan-2-yl)pyridin-4-yl]methyl}acetamide] cannot be ordered by IC50: less than 500 nM for the first, less than 500 nM for the second.
